Laboratory results reported in US12419877B2, “Solid forms of {[5-(3-chlorophenyl)-3-hydroxypyridine-2-carbonyl]amino}acetic acid, compositions, and uses thereof” (Akebia Therapeutics, Inc., priority 2013, dated 2025).
Values after ≈ are worked out from the molar mass of the structure shown. Read-outs that look alike come from different tables or passages of the source.

Assay: Solubility experiments (approximate solubility by solvent aliquot addition)
Assay type: physicochemical
Details: thermodynamic from solid
Protocol: Approximately 20 mg of Form A of Compound (1) was placed in each of 48 vials and 5 volume aliquots of the appropriate solvent systems were added to the appropriate vial. Between each addition, the mixture was checked for dissolution and if no dissolution was apparent, the mixture was warmed to ca. 50° C. and checked again. This procedure was continued until dissolution was observed or until 100 volumes of solvent had been added.

Molecule O=C(O)CNC(=O)c1ncc(-c2cccc(Cl)c2)cc1O [Form A of Compound (I), {[5-(3-chlorophenyl)-3-hydroxypyridine-2-carbonyl]amino}acetic acid] has a solubility (aqueous with cosolvent or surfactant or cyclodextrin, Solvent: MeOH/Water (20%), ca. 50° C., read-out: Solubility (mg/mL) (ca. 50° C.)) of less than 10 mg/mL, a solubility (aqueous with cosolvent or surfactant or cyclodextrin, Solvent: MeOH/Water (50%), RT (ca. 22° C.), read-out: Solubility (mg/mL) RT (ca. 22° C.)) of less than 10 mg/mL and a solubility (aqueous with cosolvent or surfactant or cyclodextrin, Solvent: MeOH/Water (50%), ca. 50° C., read-out: Solubility (mg/mL) (ca. 50° C.)) of less than 10 mg/mL. The solubility (ethyl acetate/cyclohexane (1:2), organic solvent or mixture, Solvent: EtOAc/Cyclohexane (1:2), RT (ca. 22° C.), read-out: Solubility (mg/mL) RT (ca. 22° C.)) was less than 10 mg/mL, the solubility (organic solvent or mixture, Solvent: 1,2-Propanediol, RT (ca. 22° C.), read-out: Solubility (mg/mL) RT (ca. 22° C.)) was less than 20 mg/mL and the solubility (organic solvent or mixture, Solvent: 1,2-Propanediol, ca. 50° C., read-out: Solubility (mg/mL) (ca. 50° C.)) was 20 mg/mL (≈ 65.2 mM). For the same molecule, the solubility (organic solvent or mixture, Solvent: 1,4-Dioxane, RT (ca. 22° C.), read-out: Solubility (mg/mL) RT (ca. 22° C.)) was greater than 200 mg/mL, the solubility (organic solvent or mixture, Solvent: 1,4-Dioxane, ca. 50° C., read-out: Solubility (mg/mL) (ca. 50° C.)) was greater than 200 mg/mL and the solubility (organic solvent or mixture, Solvent: 1-Butanol (1-BuOH), RT (ca. 22° C.), read-out: Solubility (mg/mL) RT (ca. 22° C.)) was less than 20 mg/mL. It also gave a solubility (organic solvent or mixture, Solvent: 1-Butanol (1-BuOH), ca. 50° C., read-out: Solubility (mg/mL) (ca. 50° C.)) of 20 mg/mL (≈ 65.2 mM), a solubility (organic solvent or mixture, Solvent: 1-Propanol (1-PrOH), RT (ca. 22° C.), read-out: Solubility (mg/mL) RT (ca. 22° C.)) of less than 20 mg/mL and a solubility (organic solvent or mixture, Solvent: 1-Propanol (1-PrOH), ca. 50° C., read-out: Solubility (mg/mL) (ca. 50° C.)) of 20 mg/mL (≈ 65.2 mM). It also gave a solubility (organic solvent or mixture, Solvent: 2-Ethoxyethanol, RT (ca. 22° C.), read-out: Solubility (mg/mL) RT (ca. 22° C.)) of less than 200 mg/mL, a solubility (organic solvent or mixture, Solvent: 2-Ethoxyethanol, ca. 50° C., read-out: Solubility (mg/mL) (ca. 50° C.)) of 200 mg/mL (≈ 652 mM) and a solubility (organic solvent or mixture, Solvent: 2-Methoxyethanol, RT (ca. 22° C.), read-out: Solubility (mg/mL) RT (ca. 22° C.)) greater than 200 mg/mL. For the same molecule, the solubility (organic solvent or mixture, Solvent: 2-Methoxyethanol, ca. 50° C., read-out: Solubility (mg/mL) (ca. 50° C.)) was greater than 200 mg/mL, the solubility (organic solvent or mixture, Solvent: 2-Methyl tetrahydrofuran (2-MeTHF), RT (ca. 22° C.), read-out: Solubility (mg/mL) RT (ca. 22° C.)) was greater than 200 mg/mL and the solubility (organic solvent or mixture, Solvent: 2-Methyl tetrahydrofuran (2-MeTHF), ca. 50° C., read-out: Solubility (mg/mL) (ca. 50° C.)) was greater than 200 mg/mL. The solubility (organic solvent or mixture, Solvent: 2-Propanol (IPA), RT (ca. 22° C.), read-out: Solubility (mg/mL) RT (ca. 22° C.)) was less than 13 mg/mL, the solubility (organic solvent or mixture, Solvent: 2-Propanol (IPA), ca. 50° C., read-out: Solubility (mg/mL) (ca. 50° C.)) was 13 mg/mL (≈ 42.4 mM) and the solubility (organic solvent or mixture, Solvent: 3-Methyl-1-butanol, RT (ca. 22° C.), read-out: Solubility (mg/mL) RT (ca. 22° C.)) was less than 10 mg/mL. The solubility (organic solvent or mixture, Solvent: 3-Methyl-1-butanol, ca. 50° C., read-out: Solubility (mg/mL) (ca. 50° C.)) was less than 10 mg/mL, the solubility (organic solvent or mixture, Solvent: Acetone/Water (3%), RT (ca. 22° C.), read-out: Solubility (mg/mL) RT (ca. 22° C.)) was less than 200 mg/mL and the solubility (organic solvent or mixture, Solvent: Acetone/Water (3%), ca. 50° C., read-out: Solubility (mg/mL) (ca. 50° C.)) was 200 mg/mL (≈ 652 mM). It also gave a solubility (organic solvent or mixture, Solvent: Acetone/Water (20%), RT (ca. 22° C.), read-out: Solubility (mg/mL) RT (ca. 22° C.)) of less than 200 mg/mL, a solubility (organic solvent or mixture, Solvent: Acetone/Water (20%), ca. 50° C., read-out: Solubility (mg/mL) (ca. 50° C.)) of 200 mg/mL (≈ 652 mM) and a solubility (organic solvent or mixture, Solvent: Acetone, RT (ca. 22° C.), read-out: Solubility (mg/mL) RT (ca. 22° C.)) of 100 mg/mL (≈ 326 mM). For the same molecule, the solubility (organic solvent or mixture, Solvent: Acetone, ca. 50° C., read-out: Solubility (mg/mL) (ca. 50° C.)) was greater than 100 mg/mL, the solubility (organic solvent or mixture, Solvent: Acetonitrile, RT (ca. 22° C.), read-out: Solubility (mg/mL) RT (ca. 22° C.)) was less than 13 mg/mL and the solubility (organic solvent or mixture, Solvent: Acetonitrile, ca. 50° C., read-out: Solubility (mg/mL) (ca. 50° C.)) was 13 mg/mL (≈ 42.4 mM). It also gave a solubility (organic solvent or mixture, Solvent: Anisole, RT (ca. 22° C.), read-out: Solubility (mg/mL) RT (ca. 22° C.)) of less than 40 mg/mL, a solubility (organic solvent or mixture, Solvent: Anisole, ca. 50° C., read-out: Solubility (mg/mL) (ca. 50° C.)) of 40 mg/mL (≈ 130 mM) and a solubility (organic solvent or mixture, Solvent: Benzonitrile, RT (ca. 22° C.), read-out: Solubility (mg/mL) RT (ca. 22° C.)) of less than 10 mg/mL. For the same molecule, the solubility (organic solvent or mixture, Solvent: Benzonitrile, ca. 50° C., read-out: Solubility (mg/mL) (ca. 50° C.)) was less than 10 mg/mL, the solubility (organic solvent or mixture, Solvent: Benzyl alcohol, RT (ca. 22° C.), read-out: Solubility (mg/mL) RT (ca. 22° C.)) was less than 68 mg/mL and the solubility (organic solvent or mixture, Solvent: Benzyl alcohol, ca. 50° C., read-out: Solubility (mg/mL) (ca. 50° C.)) was 68 mg/mL (≈ 222 mM). It also gave a solubility (organic solvent or mixture, Solvent: Chloroform, RT (ca. 22° C.), read-out: Solubility (mg/mL) RT (ca. 22° C.)) of less than 10 mg/mL, a solubility (organic solvent or mixture, Solvent: Chloroform, ca. 50° C., read-out: Solubility (mg/mL) (ca. 50° C.)) of less than 10 mg/mL and a solubility (organic solvent or mixture, Solvent: Cumene, RT (ca. 22° C.), read-out: Solubility (mg/mL) RT (ca. 22° C.)) of less than 10 mg/mL. For the same molecule, the solubility (organic solvent or mixture, Solvent: Cumene, ca. 50° C., read-out: Solubility (mg/mL) (ca. 50° C.)) was less than 10 mg/mL, the solubility (organic solvent or mixture, Solvent: Cyclohexane, RT (ca. 22° C.), read-out: Solubility (mg/mL) RT (ca. 22° C.)) was less than 10 mg/mL and the solubility (organic solvent or mixture, Solvent: Cyclohexane, ca. 50° C., read-out: Solubility (mg/mL) (ca. 50° C.)) was less than 10 mg/mL. It also gave a solubility (organic solvent or mixture, Solvent: Cyclohexanone, RT (ca. 22° C.), read-out: Solubility (mg/mL) RT (ca. 22° C.)) of less than 200 mg/mL, a solubility (organic solvent or mixture, Solvent: Cyclohexanone, ca. 50° C., read-out: Solubility (mg/mL) (ca. 50° C.)) of 200 mg/mL (≈ 652 mM) and a solubility (organic solvent or mixture, Solvent: Dichloromethane (DCM), RT (ca. 22° C.), read-out: Solubility (mg/mL) RT (ca. 22° C.)) of less than 10 mg/mL. For the same molecule, the solubility (organic solvent or mixture, Solvent: Dichloromethane (DCM), ca. 50° C., read-out: Solubility (mg/mL) (ca. 50° C.)) was less than 10 mg/mL, the solubility (organic solvent or mixture, Solvent: Diethyl ether, RT (ca. 22° C.), read-out: Solubility (mg/mL) RT (ca. 22° C.)) was less than 10 mg/mL and the solubility (organic solvent or mixture, Solvent: Diethyl ether, ca. 50° C., read-out: Solubility (mg/mL) (ca. 50° C.)) was 10 mg/mL (≈ 32.6 mM). It also gave a solubility (organic solvent or mixture, Solvent: Diisopropyl ether (DIPE), RT (ca. 22° C.), read-out: Solubility (mg/mL) RT (ca. 22° C.)) of less than 10 mg/mL.
